System: GPR40
Assay: two-bottle preference test of fat emulsions, GPR40 knockout vs normal mice
Type: in vivo, mouse
Settings: GPR40 knockout mice compared to control mice; fat emulsion vs vehicle only, two drinking bottles
Text: A preference ratio of 0.5 indicates indifference, above 0.5 indicates preference and below 0.5 indicates avoidance. Both preference and intake of fat are diminished in the GPR40 KO mice compared to control mice. The stars show the concentrations of lipids at which the differences of intake or preference between knockout and control mice are statistically significant. […] The fat emulsions contained corn oil, Intralipid, lauric acid or oleic acid. When compared with normal mice, the knockout animals drank less fat. […] Because mice can still detect fat in the absence of GPR40, another receptor, probably GPR120, must also play a role in fat taste signaling.

Row | SMILES | intake of fat emulsion | preference for fat emulsion
1 | CCCCCCCC/C=C\CCCCCCCC(=O)O [oleic acid] | diminished | diminished
2 | CCCCCCCCCCCC(=O)O [lauric acid] | diminished | diminished

Source: US20080299270A1, “Fat Taste Receptors and Their Methods of Use” (NESTEC S.A., priority 2005, published 2008)
